Test [1] concerns the target T1, human HSD17β13 (stable HEK293T cell line overexpressing human HSD17β13) (Homo sapiens, UniProt Q7Z5P4).
T1 construct: expressed in transfected cells
T1 sequence (Q7Z5P4 20-300): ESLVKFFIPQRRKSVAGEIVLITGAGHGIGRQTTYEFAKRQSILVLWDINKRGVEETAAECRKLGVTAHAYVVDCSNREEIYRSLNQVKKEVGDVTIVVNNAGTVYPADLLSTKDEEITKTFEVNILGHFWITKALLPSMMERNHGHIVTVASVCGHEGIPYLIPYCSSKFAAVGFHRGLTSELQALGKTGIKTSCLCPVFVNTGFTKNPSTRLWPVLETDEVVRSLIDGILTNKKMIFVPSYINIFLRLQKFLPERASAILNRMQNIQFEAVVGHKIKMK
The test can be described thus: HSD17β13 inhibitor cell-based screening assay (conversion of estradiol-d2 to estrone-d2 by RF-MS). To be noted: conversion of estradiol-d2 to estrone-d2 after 24 hours. In outline:
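Cellular IC50 is based on 24-h conversion of estradiol-d2 (5 μM final) to estrone-d2, measured by RF-MS in acetonitrile-precipitated supernatants. Assay uses human HSD17β13-overexpressing HEK293T cells (7.5E3/well, 1% charcoal/dextran FBS MEM), with compounds dosed as a 9-point 1:3 series to 10 μM final. ATPlite luminescence on overexpressing and parent lines measured viability.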

The target of test [2] is T2, Recombinant human 17β-HSD13 (Homo sapiens, UniProt Q7Z5P4).
T2 construct: host or cells: Sf9 insect cells
T2 sequence (Q7Z5P4 20-300): T1 sequence (Q7Z5P4 20-300)
The test can be described thus: 17β-HSD13 rapid-fire mass spectrometry assay (RF/MS assay). Particulars: inhibition of 17β-HSD13, RF/MS assay; HSD17B13 80 nM, LTB4 10 μM, NAD+ 0.5 mM, RT 3 h. The format is biochemical. The source says:
17(3-HSD13 rapid-fire mass spectrometry assay (RF/MS assay). Recombinant human 17β-HSD13 was expressed and purified from sf9 cells at Charles River Labs (Saffron Walden, UK). Leukotriene B4 (Catalog #71160-24-2) and 12-oxoleukotriene B4 (Catalog #20140) were purchased from Cayman Chemicals (Ann Arbor, MI). NAD+ (Catalog #N8285), BSA (Catalog #A7030), DMSO (Catalog #D2650), and Tween-20 (Catalog #11332465001) were purchased from Sigma (St. Louis, MO). Formic acid (Catalog #28905) was from ThermoFisher Scientific and 384 deep well PP microplates (Catalog #784261) were from Greiner Bio-One. In a typical IC50 assay performed in a 384w PP microplate, test compounds (0-100 μM) were incubated with HSD17B13 (80 nM), LTB4 (10 μM), and NAD^+ (0.5 mM) in 10 μL assay buffer (20 mM Tris (pH 7.5), BSA (0.005%), and Tween-20 (0.01%)) at RT for 3 h. The assays were quenched by adding 20 μL of 0.15% aqueous formic acid and the plates were frozen at −80° C. RF/MS analysis was performed at PureHoney Technologies (Billerica, MA) on a RapidFire RF300 system (Agilent Technologies, Inc.) coupled to an API 4000 triple quadrupole mass spectrometer (Sciex) equipped with Agilent RapidFire cartridge type A (C4). The mobile phase was 0.09% formic acid and 0.01% trifluoracetic acid in water (Buffer A) and 0.09% formic acid and 0.01% trifluoracetic acid in 80% aqueous acetonitrile (Buffer B). The RapidFire method conditions were the following: 250 ms aspirate, 3000 ms load/desalt, 4000 ms elute, and 500 ms re-equilibrate. RF-MS/MS was performed in negative polarity (−4500 V), the source temperature was 650° C., and gas 1 and gas 2 settings for nitrogen were set to 50. The curtain gas and collision gas were also nitrogen and were set to 20 and 12, respectively. Leukotriene B4 (335.3) and 12-oxoLeukotriene B4 (333.3) SRM transitions were optimized with Discovery Quant software and extracted ion counts for these analytes were determined.
Data Analysis. 17β-HSD13 enzyme activity was measured as percent conversion of extracted ion counts and normalized to high and low controls to determine percent residual activity at various concentrations of test compounds. Data was fitted to normalized activity (variable slope) versus concentration fit in GraphPad Prism 7 to determine IC50. All experiments were run in duplicates.
By using the above method, the inhibition of 17β-HSD13 was evaluated for the compounds of Formula (I). IC50 ranges are as follows: A is <0.1 μM; B is 0.1 μM-1.0 μM; C is 1.0 μM-10 μm; and D is >10 μM.

With `COc1ccc(-c2nc3sc4c(O)c(Cl)ccc4c3c(=O)n2Cc2cc(C(F)(F)F)no2)c(C2CC2)c1` [Example 48, 7-chloro-2-(2-cyclopropyl-4-methoxyphenyl)-8-hydroxy-3-((3-(trifluoromethyl)isoxazol-5-yl)methyl)benzo[4,5]thieno[2,3-d]pyrimidin-4(3H)-one], the IC50 in test [1] and in test [2] was < 0.1 µM throughout.
In the case of `O=c1c2c(nc(-c3ccc(F)cc3C3CC3)n1Cc1cnc(C3CC3)o1)sc1c(O)c(Cl)ccc12` [Example 50, 7-chloro-2-(2-cyclopropyl-4-fluorophenyl)-3-((2-cyclopropyloxazol-5-yl)methyl)-8-hydroxybenzo[4,5]thieno[2,3-d]pyrimidin-4(3H)-one], the IC50 in test [1] and in test [2] was < 0.1 µM each time.
As for `O=c1c2c(nc(-c3ccc(F)cc3C3CC3)n1Cc1ccno1)sc1c(O)c(Cl)ccc12` [Example 52, 7-chloro-2-(2-cyclopropyl-4-fluorophenyl)-8-hydroxy-3-(isoxazol-5-ylmethyl)benzo[4,5]thieno[2,3-d]pyrimidin-4(3H)-one], the IC50 in test [1] and in test [2] was < 0.1 µM throughout.
For the molecule `O=c1c2c(nc(-c3cc(F)c(F)cc3C3CC3)n1Cc1cnc(C(F)(F)F)nc1)sc1c(O)c(Cl)ccc12` [Example 63, 7-chloro-2-(2-cyclopropyl-4,5-difluorophenyl)-8-hydroxy-3-((2-(trifluoromethyl)pyrimidin-5-yl)methyl)benzo[4,5]thieno[2,3-d]pyrimidin-4(3H)-one], the IC50 in test [1] and in test [2] was < 0.1 µM in each case.
Regarding `O=c1c2c(nc(-c3cc(F)c(F)cc3C3CC3)n1Cc1cc(C(F)(F)F)on1)sc1c(O)c(Cl)ccc12` [Example 66, 7-chloro-2-(2-cyclopropyl-4,5-difluorophenyl)-8-hydroxy-3-((5-(trifluoromethyl)isoxazol-3-yl)methyl)benzo[4,5]thieno[2,3-d]pyrimidin-4(3H)-one], the half-inhibitory concentration (IC50) in test [1] and in test [2] was < 0.1 µM each time.
For the molecule `CS(=O)(=O)c1ccc(-c2nc3sc4c(O)c(F)ccc4c3c(=O)n2Cc2cnc(C(F)(F)F)nc2)c(C2CC2)c1` [Example 71, 2-(2-cyclopropyl-4-(methylsulfonyl)phenyl)-7-fluoro-8-hydroxy-3-((2-(trifluoromethyl)pyrimidin-5-yl)methyl)benzo[4,5]thieno[2,3-d]pyrimidin-4(3H)-one], the 50% inhibitory concentration (IC50) in test [1] and in test [2] was < 0.1 µM in each case.
As to `CCOc1ccc(-c2nc3sc4c(O)c(Cl)ccc4c3c(=O)n2Cc2cnco2)c(C2CC2)c1` [Example 72, 7-chloro-2-(2-cyclopropyl-4-ethoxyphenyl)-8-hydroxy-3-(oxazol-5-ylmethyl)benzo[4,5]thieno[2,3-d]pyrimidin-4(3H)-one], the IC50 in test [1] and in test [2] was < 0.1 µM in each case.
For `CC(C)Oc1ccc(-c2nc3sc4c(O)c(Cl)ccc4c3c(=O)n2Cc2cnco2)c(C2CC2)c1` [Example 73], the 50% inhibitory concentration (IC50) in test [1] and in test [2] was < 0.1 µM in each case.
`CC(C)(C)c1ccc(-c2nc3sc4c(O)c(Cl)ccc4c3c(=O)n2Cc2cnco2)c(C2CC2)c1` [Example 75, 2-(4-(tert-butyl)-2-cyclopropylphenyl)-7-chloro-8-hydroxy-3-(oxazol-5-ylmethyl)benzo[4,5]thieno[2,3-d]pyrimidin-4(3H)-one]: the IC50 in test [1] and in test [2] was < 0.1 µM in each case.
In the case of `COc1cc(C2CC2)c(-c2nc3sc4c(O)c(Cl)ccc4c3c(=O)n2Cc2cnco2)cc1F` [Example 76, 7-chloro-2-(2-cyclopropyl-5-fluoro-4-methoxyphenyl)-8-hydroxy-3-(oxazol-5-ylmethyl)benzo[4,5]thieno[2,3-d]pyrimidin-4(3H)-one], the IC50 in test [1] and in test [2] was < 0.1 µM throughout.
For `O=c1c2c(nc(-c3cc(Cl)c(Cl)cc3C3CC3)n1Cc1cnco1)sc1c(O)c(Cl)ccc12` [Example 77], the IC50 in test [1] and in test [2] was < 0.1 µM throughout.
For `COc1cc(C2CC2)c(-c2nc3sc4c(O)c(Cl)ccc4c3c(=O)n2Cc2cnco2)cc1C(F)(F)F` [Example 78], the half-inhibitory concentration (IC50) in test [1] was < 0.1 µM; in test [2], 0.1 to 1 µM.
Taken in the same sequence, the figures for `O=c1c2c(nc(-c3cc(C(F)(F)F)c(Cl)cc3C3CC3)n1Cc1cnco1)sc1c(O)c(Cl)ccc12` [Example 79] were < 0.1 µM and < 0.1 µM.
Taken in the same sequence, the figures for `COc1cc(-c2nc3sc4c(O)c(Cl)ccc4c3c(=O)n2Cc2cnco2)c(C2CC2)cc1F` [Example 82, 7-chloro-2-(2-cyclopropyl-4-fluoro-5-methoxyphenyl)-8-hydroxy-3-(oxazol-5-ylmethyl)benzo[4,5]thieno[2,3-d]pyrimidin-4(3H)-one] were < 0.1 µM and < 0.1 µM.
For `COc1ccc(C2CC2)c(-c2nc3sc4c(O)c(Cl)ccc4c3c(=O)n2Cc2cnco2)c1` [Example 83] the same measures were < 0.1 µM and < 0.1 µM.
`O=c1c2c(nc(-c3cc(F)c(F)cc3C3CC3)n1Cc1cc(C(F)(F)F)no1)sc1c(O)c(Cl)ccc12` [Example 85]: the IC50 in test [1] and in test [2] was < 0.1 µM throughout.
Take `COc1ccc(-c2nc3sc4c(O)c(Cl)ccc4c3c(=O)n2Cc2cnn(C)c2)c(C2CC2)c1` [Example 86]: the IC50 in test [1] and in test [2] was < 0.1 µM in each case.
As for `O=c1c2c(nc(-c3ncc(C(F)(F)F)cc3C3CC3)n1Cc1cc(C(F)(F)F)no1)sc1c(O)c(Cl)ccc12` [Example 96], the half-maximal inhibitory concentration (IC50) in test [1] and in test [2] was < 0.1 µM throughout.
As for `O=c1c2c(nc(-c3ncc(F)cc3C3CC3)n1Cc1cc(C(F)(F)F)no1)sc1c(O)c(Cl)ccc12` [Example 97], the half-inhibitory concentration (IC50) in test [1] and in test [2] was < 0.1 µM throughout.
As for `O=c1c2c(nc(-c3ncc(C(F)(F)F)cc3C3CC3)n1Cc1cnc(C(F)(F)F)nc1)sc1c(O)c(Cl)ccc12` [Example 99], the IC50 in test [1] and in test [2] was < 0.1 µM each time.
As to `COc1cc(C2CC2)c(-c2nc3sc4c(O)c(Cl)ccc4c3c(=O)n2Cc2cnco2)cc1Cl` [Example 105, 7-chloro-2-(5-chloro-2-cyclopropyl-4-methoxyphenyl)-8-hydroxy-3-(oxazol-5-ylmethyl)benzo[4,5]thieno[2,3-d]pyrimidin-4(3H)-one], the half-maximal inhibitory concentration (IC50) in test [1] and in test [2] was < 0.1 µM in each case.
On to `O=c1c2c(nc(-c3ccc(Cl)cc3C3CC3)n1Cc1cnco1)sc1c(O)c(Cl)ccc12` [Example 106], for which the half-inhibitory concentration (IC50) in test [1] and in test [2] was < 0.1 µM in each case.
On to `COc1ccc(-c2nc3sc4c(O)c(Cl)ccc4c3c(=O)n2Cc2cnco2)c(C2CCC2)c1` [Example 117], for which the figures for the IC50 in test [1] and in test [2] were 0.1 to 0.5 µM and < 0.1 µM, respectively.
On to `O=c1c2c(nc(-c3cc(F)c(F)cc3C3CC3)n1Cc1cnco1)sc1c(O)c(Cl)ccc12` [Example 119], for which the IC50 in test [1] and in test [2] was < 0.1 µM each time.
For the molecule `COc1cc(-c2nc3sc4c(O)c(Cl)ccc4c3c(=O)n2Cc2cnco2)c(C2CC2)cc1Cl` [Example 120], the IC50 in test [1] and in test [2] was < 0.1 µM in each case.
For `COc1ccc(-c2nc3sc4c(O)c(Cl)ccc4c3c(=O)n2Cc2cnco2)c(Br)c1` [Example 122], the 50% inhibitory concentration (IC50) in test [1] and in test [2] was < 0.1 µM throughout.
Regarding `O=c1c2c(nc(-c3cc(F)c(Cl)cc3C3CC3)n1Cc1cnco1)sc1c(O)c(Cl)ccc12` [Example 123], the IC50 in test [1] and in test [2] was < 0.1 µM throughout.

Source of the values: US20250154163A1, “Pyrimidinone-Containing 17-Beta-Hydroxysteroid Dehydrogenase Type 13 Inhibitors” (ENANTA PHARMACEUTICALS, INC., priority 2023, published 2025).
